Legend:
Format in all cases: cell-based, human
Miro1 mRNA = Miro1 mRNA expression by qPCR in fibroblasts
Experimental: FIG. 8. Related to FIG. 2-4. Miro1 Reducer in Human Cell and Fly Models. (A) Fibroblasts from Healthy-1 and PD-2 were treated, lysed, and blotted as indicated. Band intensities are normalized to those of GAPDH from the same blots and compared to “Healthy-1, no treatment”. n=4 independent experiments. (B) Fibroblasts from PD-2 were treated and immunostained as indicated. The intensity was quantified for each cell across 264-320 cells from 3 independent experiments, compared to “no treatment”. (C) Fibroblasts were treated, immunoprecipitated (IPed) with anti-Miro1, and blotted as indicated. Similar results were observed twice. […] The GTPase activity of the IPed Miro1 protein was measured as described in Method. […] The MitoSox intensity was quantified for each cell across 106-161 cells from 3 coverslips. […] The TMRM intensity was measured for each cell across 48-60 cells from 3 independent experiments, and expressed as a fraction of the mean of “Healthy-1, no treatment”. […] The movement (the intensity of non-yellow) was quantified for each cell as described in (Tsai et al., 2014) across 22-31 cells from 3 transfections. […] (1) Left: The percentage of TH-positive iPSC-derived neurons out of total cells (Dapi-positive) is calculated after immunocytochemistry under 20× as described in FIG. 3. […]
PCR. […] Concentrations of total RNA were measured using a Nano Drop. […]

PD fibroblasts = test: Mitophagy at 14 hrs after CCCP in PD fibroblasts (Western blotting and immunocytochemistry); settings: 14 hrs after CCCP treatment
Experimental: FIG. 8. Related to FIG. 2-4. Miro1 Reducer in Human Cell and Fly Models. (A) Fibroblasts from Healthy-1 and PD-2 were treated, lysed, and blotted as indicated. Band intensities are normalized to those of GAPDH from the same blots and compared to “Healthy-1, no treatment”. n=4 independent experiments. (B) Fibroblasts from PD-2 were treated and immunostained as indicated. The intensity was quantified for each cell across 264-320 cells from 3 independent experiments, compared to “no treatment”. (C) Fibroblasts were treated, immunoprecipitated (IPed) with anti-Miro1, and blotted as indicated. Similar results were observed twice. (D) Similar as in (C), fibroblasts were treated as indicated, and IPed with anti-Miro1. The GTPase activity of the IPed Miro1 protein was measured as described in Method. […] The MitoSox intensity was quantified for each cell across 106-161 cells from 3 coverslips. […] The TMRM intensity was measured for each cell across 48-60 cells from 3 independent experiments, and expressed as a fraction of the mean of “Healthy-1, no treatment”. […] The movement (the intensity of non-yellow) was quantified for each cell as described in (Tsai et al., 2014) across 22-31 cells from 3 transfections. […] (1) Left: The percentage of TH-positive iPSC-derived neurons out of total cells (Dapi-positive) is calculated after immunocytochemistry under 20× as described in FIG. 3. […]

fibroblasts = test: Cytotoxicity: mitochondrial matrix and cytosolic proteins in fibroblasts with CCCP; settings: combined with CCCP treatment for 6 hrs
Experimental: FIG. 2A-FIG. 2F. Miro1 Reducer Eliminates the Miro1 Defect in PD Fibroblasts. (FIG. 2A) Chemical properties of Miro1 Reducer. (FIG. 2B) Wild-type flies (w^1118) were fed with DMSO alone (0 μM Miro1 Reducer) or Miro1 Reducer in DMSO at 250 μM for 7 days, and lysed and blotted as indicated. The band intensities are normalized to those of Tubulin from the same blots. n=4. (FIG. 2C-FIG. 2E) Fibroblasts were treated, lysed, and blotted as indicated. (FIG. 2C) Band intensities are normalized to those of GAPDH from the same blots and compared to “Healthy-1, no treatment” except otherwise indicated. n=4. (FIG. 2D) Band intensities are normalized to those of ATP5β from the same blots and expressed as a percentage of the mean of “0 μM Miro1 Reducer with CCCP”. Mean±S.E.M is shown. n=3. (FIG. 2E) Band intensities are normalized to those of GAPDH from the same blots and compared to “Healthy-1, no CCCP, no MG132” except otherwise indicated. n=4. (FIG. 2F) Healthy-1 and PD-2 fibroblasts were transfected as indicated, and immunostained with anti-Myc (Miro1, green) and stained with Dapi (blue). The Miro1 intensity is normalized to that of mito-dsRed from the same cell and quantified across 37-62 cells from 5 fields each transfection, 3 independent transfections. Scale bars: 50 μm. For (FIG. 2C-FIG. 2F), both CCCP and Miro1 Reducer were dissolved in DMSO. […]

Q: O=C(Nc1ccc(Nc2cc(-n3ccnc3)ncn2)cc1)Nc1cccc(F)c1 [Miro1 Reducer] was tested. Which “Miro1 mRNA expression (qPCR)” value (Miro1 mRNA) did it give?
A: nor did it change Miro1 mRNA expression

Q: And the delayed mitophagy phenotype (PD fibroblasts)?
A: rescued the delayed mitophagy phenotype

Q: And the “concentrations impacting multiple mitochondrial matrix and cytosolic proteins, indicating cytotoxicity” value (fibroblasts)?
A: > 25 µM

From patent US12544375B2, “Small molecule therapeutic for parkinson's disease paired with a biomarker of therapeutic activity” (The Board of Trustees of the Leland Stanford Junior …, priority 2019, dated 2026)
